Drawing on BindingDB's records for doi:10.1016/s0960-894x(03)00474-8 (Merck Research Laboratories, 2003), this text covers IC50 for 2 compounds.

Each structure is given as a SMILES string.

For the assay, the target named is T1, Dimer of Gag-Pol polyprotein [489-587,Q496K] (Human immunodeficiency virus 1, UniProt P12497, Q496K).
T1 construct: 489-587
As to the kind of experiment: Protease Inhibition Assay. The conditions noted are these: pH 5.5; 30 °C. How it is done: Assay of HIV protease inhibition was performed by peptide cleavage using the substrate Val-Ser-Gln-Asn-beta-naphthylalanine*Pro-Ile-Val. Products of the cleavage reaction were quantified by HPLC detection, and data were fit to nonlinear least squares equations for determination of steady-state Michaelis-Menten kinetics.

`CC(C)(c1ncc(-c2cncc(Cl)c2)o1)N1CCN(C[C@@H](O)C[C@@H](Cc2ccccc2)C(=O)N[C@H]2c3ccccc3OC[C@H]2O)[C@H](C(=O)NCC(F)(F)F)C1` [(2S)-1-[(2S,4R)-4-benzyl-2-hydroxy-4-{[(3S,4S)-3-hydroxy-3,4-dihydro-2H-1-benzopyran-4-yl]carbamoyl}butyl]-4-{2-[5-(5-chloropyridin-3-yl)-1,3-oxazol-2-yl]propan-2-yl}-N-(2,2,2-trifluoroethyl)piperazine-2-carboxamide]: half-maximal inhibition (IC50) required 20 pM.
In the case of `CC(C)(c1ccc(-c2ccncc2)o1)N1CCN(C[C@@H](O)C[C@@H](Cc2ccccc2)C(=O)N[C@H]2c3ccccc3OC[C@H]2O)[C@H](C(=O)NCC(F)(F)F)C1` [(2S)-1-[(2S,4R)-4-benzyl-2-hydroxy-4-{[(3S,4S)-3-hydroxy-3,4-dihydro-2H-1-benzopyran-4-yl]carbamoyl}butyl]-4-{2-[5-(pyridin-4-yl)furan-2-yl]propan-2-yl}-N-(2,2,2-trifluoroethyl)piperazine-2-carboxamide], half-maximal inhibition (IC50) required 50 pM.
